In US9346809B2 (LEO PHARMA A/S, priority 2009, dated 2016) one finds EC50 data, which are given here for 21 compounds.

A value given as a limit tells only on which side of the number the result lay.

The term EC50 denotes the midpoint of the concentration-response curve.

Holding throughout (format): biochemical
The target of assay [1] is T1, JAK1 (aa 850-1154, catalytic domain, GST-tag) (Homo sapiens, UniProt P23458).
T1 construct: JAK1 (aa 850-1154) and TYK2 (aa 871-1187) are expressed with an N-terminally fused GST-tag; GST (N); purchased Carna Biosciences, Inc; host or cells: baculovirus expression system
The experiment in a line: JAK kinase assay (HTRF, phosphorylation of TK substrate-biotin), JAK1. The conditions noted are these: ATP at Km (7 μM); read-out: JAK1 kinase inhibitory activity (EC50 indicator). The procedure, abridged:
(§1)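 Per reaction, 5 ng JAK1, 0.1 ng JAK2, 0.3 ng JAK3 or 0.8 ng TYK2 (baculovirus-expressed catalytic domains) acted on 1 μM TK substrate-biotin at Km ATP for 20-30 min, RT. Phosphorylation measured by HTRF.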

For assay [2], the target named is T2, JAK2 (catalytic domain, His-tag) (Homo sapiens, UniProt O60674).
T2 construct: All four purified enzymes contain only the catalytic domain; His (N); purchased Carna Biosciences, Inc; host or cells: baculovirus expression system
Description: JAK kinase assay (HTRF, phosphorylation of TK substrate-biotin), JAK2. The conditions noted are these: ATP at Km (4 μM); read-out: JAK2 kinase inhibitory activity (EC50 indicator). The procedure, abridged:
as §1
A general note: In TR-FRET formats the signal depends on donor and acceptor labels being close together.

Assay [3] has as its target T3, JAK3 (catalytic domain, His-tag) (Homo sapiens, UniProt P52333).
T3 construct: All four purified enzymes contain only the catalytic domain; His (N); purchased Carna Biosciences, Inc; host or cells: baculovirus expression system
The experiment in a line: JAK kinase assay (HTRF, phosphorylation of TK substrate-biotin), JAK3. The conditions noted are these: ATP at Km (2 μM); read-out: JAK3 kinase inhibitory activity (EC50 indicator). The procedure, abridged: as §1

Assay [4] has as its target T4, TYK2 (aa 871-1187, catalytic domain, GST-tag) (Homo sapiens, UniProt P29597).
T4 construct: JAK1 (aa 850-1154) and TYK2 (aa 871-1187) are expressed with an N-terminally fused GST-tag; GST (N); purchased Carna Biosciences, Inc; host or cells: baculovirus expression system
T4 sequence (P29597 871-1187): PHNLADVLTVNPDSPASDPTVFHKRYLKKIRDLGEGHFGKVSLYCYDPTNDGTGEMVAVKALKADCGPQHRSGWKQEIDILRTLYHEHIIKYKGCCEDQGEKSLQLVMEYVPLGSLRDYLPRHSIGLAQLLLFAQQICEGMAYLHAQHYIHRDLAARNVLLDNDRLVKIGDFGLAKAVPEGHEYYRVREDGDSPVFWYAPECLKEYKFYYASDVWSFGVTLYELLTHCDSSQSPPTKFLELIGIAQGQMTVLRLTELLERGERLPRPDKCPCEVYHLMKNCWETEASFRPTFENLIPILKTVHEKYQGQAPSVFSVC
Description: JAK kinase assay (HTRF, phosphorylation of TK substrate-biotin), TYK2. The conditions noted are these: ATP at Km (13 μM); read-out: TYK2 kinase inhibitory activity (EC50 indicator). Put shortly: as §1

T1 sequence (P23458 850-1154): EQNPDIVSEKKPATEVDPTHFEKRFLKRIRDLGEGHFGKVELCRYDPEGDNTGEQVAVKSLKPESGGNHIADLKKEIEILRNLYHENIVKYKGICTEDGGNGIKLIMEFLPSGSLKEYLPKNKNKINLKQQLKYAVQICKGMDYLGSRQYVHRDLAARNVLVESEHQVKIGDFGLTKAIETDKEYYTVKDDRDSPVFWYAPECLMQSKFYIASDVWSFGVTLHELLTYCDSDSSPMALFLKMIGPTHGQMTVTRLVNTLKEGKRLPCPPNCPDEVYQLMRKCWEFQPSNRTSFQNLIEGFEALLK
T3 sequence (P52333 822-1111 limits assumed): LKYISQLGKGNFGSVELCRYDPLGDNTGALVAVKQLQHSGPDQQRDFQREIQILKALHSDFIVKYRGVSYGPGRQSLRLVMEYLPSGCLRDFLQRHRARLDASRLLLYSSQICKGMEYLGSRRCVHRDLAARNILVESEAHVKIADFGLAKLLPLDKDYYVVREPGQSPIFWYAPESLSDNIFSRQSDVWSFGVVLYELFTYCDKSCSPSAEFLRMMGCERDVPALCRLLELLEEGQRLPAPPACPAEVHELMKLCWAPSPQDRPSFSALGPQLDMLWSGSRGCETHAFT
T2 sequence (O60674 849-1124 limits assumed): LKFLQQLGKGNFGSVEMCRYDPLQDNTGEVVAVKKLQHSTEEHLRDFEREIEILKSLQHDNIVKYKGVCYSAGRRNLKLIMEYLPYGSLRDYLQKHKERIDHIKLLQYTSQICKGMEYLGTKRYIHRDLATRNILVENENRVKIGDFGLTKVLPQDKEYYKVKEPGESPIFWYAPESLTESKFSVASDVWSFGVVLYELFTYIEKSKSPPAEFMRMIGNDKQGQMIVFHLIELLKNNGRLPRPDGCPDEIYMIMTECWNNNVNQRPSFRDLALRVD

For the compound `O=C(c1cc2c(s1)CCC2)N1C2CCC1CN(c1ncnc3[nH]ccc13)C2` [Example 139, (5,6-Dihydro-4H-cyclopenta[b]thiophen-2-yl)-[3-(7H-pyrrolo[2,3-d]pyrimidin-4-yl)-3,8-diaza-bicyclo[3.2.1]oct-8-yl]-methanone], the EC50 is less than 100 nM in assay [1], less than 100 nM in assay [2], 100 to 500 nM in assay [3] and more than 500 nM in assay [4].
For the compound `O=C(c1cc2cc(F)cc(F)c2[nH]1)N1C2CCC1CN(c1ncnc3[nH]ccc13)C2` [Example 140, (5,7-Difluoro-1H-indol-2-yl)-[3-(7H-pyrrolo[2,3-d]pyrimidin-4-yl)-3,8-diaza-bicyclo[3.2.1]oct-8-yl]-methanone], the EC50 in assay [1] is less than 100 nM; in assay [2], less than 100 nM; in assay [3] it was less than 100 nM; in assay [4] it was more than 500 nM.
Consider `Cn1c(C(=O)N2C3CCC2CN(c2ncnc4[nH]ccc24)C3)ccc1S(N)(=O)=O` [Example 141, 1-Methyl-5-[3-(7H-pyrrolo[2,3-d]pyrimidin-4-yl)-3,8-diaza-bicyclo[3.2.1]octane-8-carbonyl]-1H-pyrrole-2-sulfonic acid amide], for which the EC50 is less than 100 nM in assay [1], less than 100 nM in assay [2], less than 100 nM in assay [3] and more than 500 nM in assay [4].
Consider `Cn1cc(S(N)(=O)=O)cc1C(=O)N1C2CCC1CN(c1ncnc3[nH]ccc13)C2` [Example 142, 1-Methyl-5-[3-(7H-pyrrolo[2,3-d]pyrimidin-4-yl)-3,8-diaza-bicyclo[3.2.1]octane-8-carbonyl]-1H-pyrrole-3-sulfonic acid amide], for which the EC50 in assay [1] is less than 100 nM; in assay [2], less than 100 nM; in assay [3], less than 100 nM; in assay [4], 100 to 500 nM.
As to `NS(=O)(=O)CCCC(=O)N1CCN(c2ncnc3[nH]ccc23)CC12CC2` [Example 143, 4-Oxo-4-[7-(7H-pyrrolo[2,3-d]pyrimidin-4-yl)-4,7-diaza-spiro[2.5]oct-4-yl]-butane-1-sulfonic acid amide], the concentration for a half-maximal effect (EC50) in assay [1] is less than 100 nM; in assay [2], less than 100 nM; in assay [3] it was less than 100 nM; in assay [4], more than 500 nM.
Turning to `O=C(C1CCOC1)N1C2CCC1CN(c1ncnc3[nH]ccc13)C2` (stereo not drawn) [Example 144, [3-(7H-Pyrrolo[2,3-d]pyrimidin-4-yl)-3,8-diaza-bicyclo[3.2.1]oct-8-yl]-(tetrahydro-furan-3-yl)-methanone], the EC50 was 100 to 500 nM in assay [1], less than 100 nM in assay [2], more than 500 nM in assay [3] and more than 500 nM in assay [4].
In the case of `CC1CN(C(=O)c2cccc(C#N)c2)C2(CC2)CN1c1ncnc2[nH]ccc12` (stereo not drawn) [Example 145, 3-[6-Methyl-7-(7H-pyrrolo[2,3-d]pyrimidin-4-yl)-4,7-diaza-spiro[2.5]octane-4-carbonyl]-benzonitrile], the EC50 is less than 100 nM in assay [1], less than 100 nM in assay [2], 100 to 500 nM in assay [3] and 100 to 500 nM in assay [4].
Consider `CC1CN(C(=O)Cc2cccc(C#N)c2)C2(CC2)CN1c1ncnc2[nH]ccc12` (stereo not drawn) [Example 146, 3-{2-[6-Methyl-7-(7H-pyrrolo[2,3-d]pyrimidin-4-yl)-4,7-diaza-spiro[2.5]oct-4-yl]-2-oxo-ethyl}-benzonitrile], for which the EC50 in assay [1] was 100 to 500 nM; in assay [2] it was less than 100 nM; in assay [3] it was 100 to 500 nM; in assay [4], more than 500 nM.
Consider `CC1CN(C(=O)Cc2ccc(C#N)cc2)C2(CC2)CN1c1ncnc2[nH]ccc12` (stereo not drawn) [Example 147, 4-{2-[6-Methyl-7-(7H-pyrrolo[2,3-d]pyrimidin-4-yl)-4,7-diaza-spiro[2.5]oct-4-yl]-2-oxo-ethyl}-benzonitrile], for which the EC50 in assay [1], in assay [2], in assay [3] and in assay [4] was less than 100 nM each time.
`CC1CN(C(=O)c2ccc(C#N)cc2)C2(CC2)CN1c1ncnc2[nH]ccc12` (stereo not drawn) [Example 148, 4-[6-Methyl-7-(7H-pyrrolo[2,3-d]pyrimidin-4-yl)-4,7-diaza-spiro[2.5]octane-4-carbonyl]-benzonitrile]: the EC50 is less than 100 nM in assay [1], less than 100 nM in assay [2], 100 to 500 nM in assay [3] and more than 500 nM in assay [4].
Turning to `CC1CN(C(=O)C2(C#N)CC2)C2(CC2)CN1c1ncnc2[nH]ccc12` (stereo not drawn) [Example 149, 1-[6-Methyl-7-(7H-pyrrolo[2,3-d]pyrimidin-4-yl)-4,7-diaza-spiro[2.5]octane-4-carbonyl]-cyclopropanecarbonitrile], the EC50 in assay [1] is less than 100 nM; in assay [2], less than 100 nM; in assay [3] it was 100 to 500 nM; in assay [4] it was 100 to 500 nM.
As to `CC1CN(C(=O)CCC#N)C2(CC2)CN1c1ncnc2[nH]ccc12` (stereo not drawn) [Example 150, 4-[6-Methyl-7-(7H-pyrrolo[2,3-d]pyrimidin-4-yl)-4,7-diaza-spiro[2.5]oct-4-yl]-4-oxo-butyronitrile], the half-maximal effective concentration (EC50) in assay [1] is less than 100 nM; in assay [2], less than 100 nM; in assay [3], less than 100 nM; in assay [4], more than 500 nM.
Turning to `CC(=O)NCC(=O)N1CCN(c2ncnc3[nH]ccc23)CC12CC2` [Example 151, N-{2-Oxo-2-[7-(7H-pyrrolo[2,3-d]pyrimidin-4-yl)-4,7-diaza-spiro[2.5]oct-4-yl]-ethyl}-acetamide], the EC50 in assay [1] is 100 to 500 nM; in assay [2] it was 100 to 500 nM; in assay [3], more than 500 nM; in assay [4] it was more than 500 nM.
`O=C(Cc1ccccc1)N1CCN(c2ncnc3[nH]ccc23)CC12CC2` [Example 152, 2-Phenyl-1-[7-(7H-pyrrolo[2,3-d]pyrimidin-4-yl)-4,7-diaza-spiro[2.5]oct-4-yl]-ethanone]: the EC50 was less than 100 nM in assay [1], less than 100 nM in assay [2], less than 100 nM in assay [3] and 100 to 500 nM in assay [4].
Take `O=C(CCc1ccccc1)N1CCN(c2ncnc3[nH]ccc23)CC12CC2` [Example 153, 3-Phenyl-1-[7-(7H-pyrrolo[2,3-d]pyrimidin-4-yl)-4,7-diaza-spiro[2.5]oct-4-yl]-propan-1-one]: the EC50 in assay [1] was less than 100 nM; in assay [2] it was less than 100 nM; in assay [3], 100 to 500 nM; in assay [4], more than 500 nM.
Regarding `O=C(N1CCN(c2ncnc3[nH]ccc23)CC12CC2)C1(c2ccccc2)CC1` [Example 154, (1-Phenyl-cyclopropyl)-[7-(7H-pyrrolo[2,3-d]pyrimidin-4-yl)-4,7-diaza-spiro[2.5]oct-4-yl]-methanone], the EC50 is 100 to 500 nM in assay [1], less than 100 nM in assay [2], more than 500 nM in assay [3] and more than 500 nM in assay [4].
On to `O=C(c1ccc(CO)cc1)N1CCN(c2ncnc3[nH]ccc23)CC12CC2` [Example 155, (4-Hydroxymethyl-phenyl)-[7-(7H-pyrrolo[2,3-d]pyrimidin-4-yl)-4,7-diaza-spiro[2.5]oct-4-yl]-methanone], for which the concentration giving a half-maximal response (EC50) in assay [1] was less than 100 nM; in assay [2], less than 100 nM; in assay [3] it was 100 to 500 nM; in assay [4], 100 to 500 nM.
On to `O=C(c1ccc2[nH]ccc2c1)N1CCN(c2ncnc3[nH]ccc23)CC12CC2` [Example 157, (1H-Indol-5-yl)-[7-(7H-pyrrolo[2,3-d]pyrimidin-4-yl)-4,7-diaza-spiro[2.5]oct-4-yl]-methanone], for which the EC50 in assay [1] was less than 100 nM; in assay [2], less than 100 nM; in assay [3], less than 100 nM; in assay [4], 100 to 500 nM.
On to `O=C([C@H]1CC[C@H](O)CC1)N1CCN(c2ncnc3[nH]ccc23)CC12CC2` [Example 158, (4-Hydroxy-cyclohexyl)-[7-(7H-pyrrolo[2,3-d]pyrimidin-4-yl)-4,7-diaza-spiro[2.5]oct-4-yl]-methanone], for which the EC50 in assay [1] is 100 to 500 nM; in assay [2] it was less than 100 nM; in assay [3], 100 to 500 nM; in assay [4], more than 500 nM.
Turning to `O=C(c1cccc2[nH]ccc12)N1CCN(c2ncnc3[nH]ccc23)CC12CC2` [Example 159, (1H-Indol-4-yl)-[7-(7H-pyrrolo[2,3-d]pyrimidin-4-yl)-4,7-diaza-spiro[2.5]oct-4-yl]-methanone], the concentration for a half-maximal effect (EC50) in assay [1] is less than 100 nM; in assay [2], less than 100 nM; in assay [3], 100 to 500 nM; in assay [4] it was 100 to 500 nM.
In the case of `O=C(c1cccc(OC(F)(F)F)c1)N1CCN(c2ncnc3[nH]ccc23)CC12CC2` [Example 160, [7-(7H-Pyrrolo[2,3-d]pyrimidin-4-yl)-4,7-diaza-spiro[2.5]oct-4-yl]-(3-trifluoromethoxy-phenyl)-methanone], the EC50 in assay [1] was less than 100 nM; in assay [2] it was less than 100 nM; in assay [3], 100 to 500 nM; in assay [4], 100 to 500 nM.
